In a melting point compilation (Tetko et al.):

| SMILES | melting point [°C] |
| --- | --- |
| CNC(C(N)=O)c1cccc(Br)c1 (centres undefined) | 111 to 113 |
| O=C(O)c1ccc(S(=O)(=O)CC(F)F)cc1 | 212 to 214 |
| Sc1nnc(-c2ccc3ccccc3c2)o1 | 226 to 228 |
| O=C(O)C(=Cc1cccs1)n1nnnc1-c1ccccc1 | 204 to 206 |
| CCCn1c(S)nnc1-c1ccncc1 | 258 to 260 |
| NC1CCN(c2ccc(C(F)(F)F)cc2)C1 (centres undefined) | 60 to 62 |
| CC(C)(C)Sc1ccc(C(N)=S)cc1 | 163 to 165 |
| Cc1noc(COc2ccc(O)cc2)n1 | 62 to 64 |
| OC[C@@H](O)CNCCC(F)(F)F | 34 to 36 |
| N#Cc1ccc(CBr)c(F)c1 | 75 to 77 |
| Nc1ccc(NC(=O)Oc2ccccc2)cc1 | 135 to 137 |
| C/C(=N\Nc1ccc(Cl)c(C(=O)O)c1)c1ccc(Br)cc1 | 180 to 182 |
| CC(C)C(=O)N1CCCC1C(=O)O (centres undefined) | 118 to 120 |
| O=Cc1cn(Cc2ccccc2)nc1-c1cc2ccccc2o1 | 146 to 148 |
| COc1ccc2cc(C(N)=S)ccc2c1 | 188 to 190 |
| O=S(=O)(Cl)c1cnn(-c2ccccc2F)c1 | 81 to 83 |
| Nc1ccc2nc(S)oc2c1 | 208 to 210 |
| Cc1ccc(S(=O)(=O)N(C)C)cc1C(=O)O | 173 to 175 |
| Cc1nn(C(C)(C)C)c2nc(C(C)C)cc(C(=O)O)c12 | 121 to 123 |
| COc1ccccc1NC(=O)Nc1cc(N)ccc1OC | 167 to 169 |
| CS(=O)(=O)NC1(C(=O)O)CCCCC1 | 114 to 116 |

| SMILES | melting point [°C] |
| --- | --- |
| O=C(O)c1ccc([N+](=O)[O-])s1 | 143 to 151 |
| CC(C)c1cc(C(=O)O)c2ccccc2n1 | 141 to 143 |
| CCc1cccc2c(CCN)c[nH]c12 | 91 to 93 |
| CC(C)CNC(N)=S | 99 to 101 |
| N#CCC(=O)NCCc1ccccc1 | 91 to 93 |
| CC(=O)Nc1cccc(N)c1C | 142 to 144 |
| O=C(O)C1CCN(CC(F)(F)F)CC1 | 62 to 64 |
| Cc1nnc(-c2ccc(Br)c(F)c2)o1 | 138 to 140 |
| CN(CCCC(=O)O)C(=O)c1cc(S(N)(=O)=O)cn1C | 173 to 175 |
| CC(C)(C)NC(=O)c1cccc(N)c1 | 124 to 126 |
| NC(=O)c1ccccc1OCCO | 112 to 114 |
| NNc1ccc(S(=O)(=O)NC2CC2)cc1 | 134 to 136 |
| CC(C)C(=O)Nc1cccc(O)c1 | 179 to 181 |
| Fc1ccc(Nc2nnc(S)s2)cc1 | 185 to 187 |
| CC(Cl)c1nc2cc(Cl)ccc2n1Cc1ccccc1 (centres undefined) | 110 to 112 |
| N#CCn1cc(C(=O)O)c2ccccc21 | 199 to 201 |
| CC(C)(C)CC(=O)Nc1ccc(Cl)c(C(=O)O)c1 | 214 to 216 |
| NCCc1ccc(OCC(N)=O)cc1 | 96 to 98 |
| O=C(N/N=C/c1c(O)ccc2ccccc12)c1ccncc1 | 266 to 268 |
| O=c1ccccn1CCO | 88 to 90 |
| Nc1nc2ccc(F)cn2n1 | 166 to 168 |

| SMILES | melting point [°C] |
| --- | --- |
| O=Cc1ccc(-c2ccc([N+](=O)[O-])cc2Br)o1 | 132 to 136 |
| COc1ccc(C(=O)C=C(SC)SC)cc1 | 99 to 101 |
| CCOC(=O)C(C#N)=Cc1ccncc1 | 101 to 103 |
| O=C(O)c1ccc(F)cc1OC(F)F | 115 to 117 |
| CCn1cnnc1S | 98 to 100 |
| CNC(C(=O)O)c1ccc(F)cc1F (centres undefined) | 277 to 279 |
| O=C(O)c1c(F)ccc(OC(F)F)c1F | 90 to 92 |
| COc1cc(Cl)c(C)cc1NC(=O)CCl | 167 to 169 |
| CN(C(=O)c1ccc(Cl)cc1)c1ccc(O)cc1 | 205 to 207 |
| CC(=O)c1ccc(NS(C)(=O)=O)cc1 | 155 to 157 |
| c1ccc(NC2CCN(c3ccncc3)CC2)cc1 | 145 to 147 |
| CCCC(C)(N)C(=O)O (centres undefined) | 269 to 271 |
| O=Cc1cn(-c2ccccc2)nc1-c1cccc(Br)c1 | 91 to 93 |
| O=C(O)CNC(=O)Nc1ccc(Br)cc1 | 192 to 194 |
| CC(C)Oc1ccc(-c2csc(N)n2)cc1 | 191 to 193 |
| O=C(O)c1cnn(-c2ccccc2)c1Br | 214 to 216 |
| CCc1c(C(=O)Nc2cc(S(=O)(=O)N(CC)CC)ccc2O)[nH]c(C)c1C(C)=O | 229 to 231 |
| CN(c1ccc(O)cc1)S(=O)(=O)c1ccc(Cl)cc1 | 154 to 156 |
| CCS(=O)(=O)c1cccc(S(=O)(=O)Cl)c1 | 92 to 94 |
| CC(CC(=O)O)NC(=O)OC(C)(C)C (centres undefined) | 94 to 96 |
| CCOc1ccccc1C(N)(C(=O)O)C(F)(F)F (centres undefined) | 119 to 121 |

| SMILES | melting point [°C] |
| --- | --- |
| O=[N+]([O-])c1ccc(OCC(F)(F)F)cc1 | 73 to 75 |
| O=C(O)C1(Br)CCC1 | 40 to 42 |
| CCc1cc(Cl)n2c(nc3ccccc32)c1C#N | 175 to 177 |
| NC(=NO)c1ccccc1OCc1ccccc1 | 120 to 122 |
| CCCCC(Br)C(=O)Nc1cc(C)on1 (centres undefined) | 84 to 86 |
| COC(=O)c1cc(Cl)nc2ccccc12 | 87 to 89 |
| CC(Cl)C(=O)NC1CCN(Cc2ccccc2)CC1 (centres undefined) | 119 to 121 |
| CCOC(=O)Cc1ccc(C(C)=O)cc1 | 55 to 57 |
| CCOC(=O)c1c(-c2ccccc2)csc1NC(=O)C(C)Cl (centres undefined) | 250 to 252 |
| CC(C)(C)OC(=O)N1CCN(C(N)=S)CC1 | 168 to 170 |
| Nc1c(F)cccc1Oc1ccccc1 | 51 to 53 |
| CS(=O)(=O)CCC(NC(=O)c1ccccc1Cl)C(=O)O (centres undefined) | 159 to 161 |
| CC(C)(C)OC(=O)N1CCC(NCC(F)(F)F)CC1 | 51 to 53 |
| NNC(=O)c1ccc(NS(=O)(=O)c2cccs2)cc1 | 178 to 180 |
| Cc1nc2ccccn2c1CN1CCNCC1 | 163 to 165 |
| N=c1nc(S)ss1 | 192 to 196 |
| CN(CC(=O)O)S(=O)(=O)C=Cc1ccccc1 | 150 to 152 |
| Cc1ccc(NC(=O)NN)c(Cl)c1 | 132 to 134 |
| CC(Oc1cccc(O)c1)C(N)=O (centres undefined) | 129 to 131 |
| CCC(=O)N(C)c1ccccc1C(=O)O | 193 to 195 |

Results, then the molecule that gave them:

| melting point [°C] | SMILES |
| --- | --- |
| 79 to 81 | N#Cc1ccc(Cl)cc1S(=O)(=O)Cl |
| 179 to 181 | O=C(O)c1cc(S(=O)(=O)N2CCOCC2)ccc1N1CCCCC1 |
| 69 to 71 | OC1CCc2cc(Br)ccc21 (centres undefined) |
| 269 to 271 | O=C(O)CCCc1nc2ccccc2c(=O)[nH]1 |
| 271 to 272 | O=C(CCl)Nc1cc(C(F)(F)F)ccc1N1CCCC1 |
| 109 to 111 | O=C1C=C2NCCC=C2O1 |
| 168 to 170 | O=C(c1ccc(O)cc1)N1CCCC1 |
| 101 to 103 | CCN1CCCC1CNS(=O)(=O)c1ccc(N)cc1 (centres undefined) |
| 249 to 251 | Cc1ccc(N2C(=O)CCC(C(=O)O)C2c2cccs2)cc1 (centres undefined) |
| 72 to 74 | CC(=O)c1cn(C)nc1C |
| 187 to 189 | COc1ccc(C2C(C(=O)O)CC(=O)N2C2CC2)cc1 (centres undefined) |
| 210 to 212 | CCn1c(=O)cc(Cl)[nH]c1=O |
| 188 to 190 | CN1C(=O)CCC(C(=O)O)C1c1ccc(C(F)(F)F)cc1 (centres undefined) |
| 258 to 260 | O=c1[nH]cnc2c1CCCN2 |
| 60 to 62 | CCNC(=O)c1cc(Cl)ccn1 |
| 73 to 75 | c1ccc(N2CCN(CC3CCCNC3)CC2)nc1 (centres undefined) |
| 198 to 202 | CCOc1ccc(C(=O)O)cc1OC |
| 220 to 222 | O=C(O)c1ccc2c(c1)C(=O)N(C1CC1)C2=O |
| 52 to 54 | CC(O)C1CCCNC1 (centres undefined) |
| 189 to 191 | Cc1csc(NC(=O)C2CCNCC2)n1 |
| 158 to 160 | N#Cc1ccc(S(=O)(=O)N2CCOCC2)cc1 |

| melting point [°C] | SMILES |
| --- | --- |
| 73 to 75 | CC(C)(C)c1ccc2c(c1)C(O)CC2 (centres undefined) |
| 43 to 45 | CCOc1c(F)cccc1C(=O)O |
| 237 to 239 | O=C(O)c1cnc(-c2ccco2)s1 |
| 136 to 138 | O=C(Nc1ccccc1O)C1CC1 |
| 72 to 74 | O=C1C(Br)CCCN1c1ccc(OC(F)F)cc1 (centres undefined) |
| 159 to 161 | c1ccc(-c2nnc3n2CCNC3)cc1 |
| 52 to 54 | CC(C)(C)C(=O)N1CCNCC1 |
| 119 to 121 | COC(=O)c1ccc(C)c(O)c1 |
| 214 to 216 | Nn1cnc2sccc2c1=O |
| 78 to 80 | CC1(NC(=O)c2ccnc(F)c2)CCCC1 |
| 132 to 134 | Cc1cc(Oc2ncccn2)ccc1N |
| 142 to 144 | CCCc1noc2nc(C3CC3)cc(C(=O)O)c12 |
| 59 to 61 | NC1CCCCC1Nc1cnccn1 (centres undefined) |
| 184 to 186 | N#Cc1ccc2ncc(C=O)n2c1 |
| 90 to 92 | NNc1ncccn1 |
| 29 to 31 | CC1(C)CC(=O)OC1=O |
| 79 to 81 | Cc1cc([N+](=O)[O-])c(S(=O)(=O)Cl)cc1C |
| 133 to 135 | NC(=NO)C1CCCc2ccccc21 (centres undefined) |
| 164 to 166 | Cc1[nH]c(C2CCCN2)nc1-c1ccccc1 (centres undefined) |
| 75 to 77 | O=[N+]([O-])c1cc(Cl)cnc1Br |
| 238 to 240 | O=C(NC1(C(=O)O)CCCCC1)c1ccc(Br)cc1 |

| melting point [°C] | SMILES |
| --- | --- |
| 211 to 213 | O=C(O)Cn1cccnc1=O |
| 219 to 221 | O=c1cc(Cl)nc2ccc(Cl)cn12 |
| 99 to 101 | CCN(CC)c1ccc(S(=O)(=O)N2CCOCC2)cc1N |
| 101 to 103 | OC1CCCCc2ccccc21 (centres undefined) |
| 145 to 147 | Cc1ccc(OCc2nc(CC(=O)O)cs2)cc1 |
| 220 to 222 | O=C(O)CCc1nc2sc3c(c2c(=O)[nH]1)CCC3 |
| 167 to 169 | Cc1nn(-c2ccc(F)cc2)nc1C(=O)O |
| 216 to 218 | CS(=O)(=O)c1cc(C(=O)O)ccc1Cl |
| 196 to 198 | COC1CCN(C(=O)Nc2cccc(C(=O)O)c2)CC1 |
| 99 to 101 | Cc1cc(NN)ncn1 |
| 237 to 239 | NNC(=O)C1CCN(c2ncccn2)CC1 |
| 171 to 173 | O=C(O)CN1CSCC1=O |
| 145 to 147 | CCOC(=O)c1c(N)sc2c1CCN(C(=O)OCC)C2 |
| 116 to 118 | CC1CCC(NS(=O)(=O)CC(=O)O)CC1 (centres undefined) |
| 94 to 96 | O=C(Nc1ccccn1)C1CCCNC1 (centres undefined) |
| 219 to 221 | O=c1[nH]c(CCl)nc2scc(-c3cccs3)c12 |
| 219 to 221 | Cc1ccc(-c2csc(=O)[nH]2)cc1 |
| 74 to 76 | CS(=O)(=O)N1CCCCC1C(=O)O (centres undefined) |
| 145 to 147 | O=C(O)CCOc1ccc(Br)cc1 |
